What follows are compounds tested against L-lactate dehydrogenase A chain (Homo sapiens, UniProt P00338) (assay: Biochemical Assay).
From the text: Test compounds were placed in a Greiner Bio-One (Monroe, N.C.) 1536-well black solid bottom assay plate. 200 millimolar (mM) Tris HCl, pH 7.4, 100 micromolar (M) EDTA and 0.01% TWEEN-20 , final concentration, was used as the assay buffer. The LDHA reagent was 2 nanomolar (nM) Human LDHA (Meridian Life Science, Inc., Memphis, Tenn.), final concentration, in assay buffer.

| IC50 [nM] | SMILES |
| --- | --- |
| < 100 | NS(=O)(=O)c1ccc(Cc2c(-c3cccc(Nc4ccccc4)c3)nn(-c3nc(C(=O)O)cs3)c2CC2CC2)cc1 [US10961200, Compound 485] |
| < 100 | CC(C)Oc1cccc(-c2nn(-c3nc(C(=O)O)cs3)c(CC3CC3)c2Cc2ccc(S(N)(=O)=O)cc2)c1 [US10961200, Compound 504] |
| < 100 | NS(=O)(=O)c1ccc(Cc2cn(-c3nc(C(=O)O)cs3)nc2-c2ccc(F)c(-c3ccccc3)c2)cc1 [US10961200, Compound 515] |

— BindingDB's records for patent US10961200 (Department Of Health And Human Services, 2021)
